Among the data in US6784167B2, “17-beta-hydroxysteroid dehydrogenase-II inhibitors” (Bayer Pharmaceuticals Corporation, priority 2000, dated 2004) are IC50 and melting point values, retold here.

Like-named read-outs stand apart in the source and are kept apart here.

One data set addresses T1, 17-Beta HSD II Enzyme (Homo sapiens, UniProt P37059).
T1 construct: made in house; host or cells: insect cells (baculovirus)
T1 sequence (P37059 1-387): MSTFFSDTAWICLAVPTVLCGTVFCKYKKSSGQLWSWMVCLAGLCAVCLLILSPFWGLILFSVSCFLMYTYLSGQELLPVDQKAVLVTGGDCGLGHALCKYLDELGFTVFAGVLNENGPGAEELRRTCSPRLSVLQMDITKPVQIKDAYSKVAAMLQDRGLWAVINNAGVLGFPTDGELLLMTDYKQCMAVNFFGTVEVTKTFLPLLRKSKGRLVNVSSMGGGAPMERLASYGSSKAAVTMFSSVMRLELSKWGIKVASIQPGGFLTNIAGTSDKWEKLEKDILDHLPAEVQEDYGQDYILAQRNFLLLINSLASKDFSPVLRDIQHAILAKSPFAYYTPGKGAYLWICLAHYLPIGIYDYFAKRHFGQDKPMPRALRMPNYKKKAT
In words: Primary assay: inhibition of 17-Beta HSD II enzyme (estradiol/NAD, PMS:MTS colorimetric readout at 490 nm). The format is biochemical. To be noted: Table 7, baculovirus-expressed recombinant HSD II, estradiol substrate. The protocol: HSD II protein purification: The method for purification of baculovirus-expressed HSD II was standardized as follows. The insect cell pellet containing recombinant HSD II was lysed in 2.5 volumes of lysis buffer (40 mM Tris, pH 7.5, 1 mM EDTA, 2 mM DTT, 10 uM NAD) containing 500 uM AEBSF, 10 ug/ml aprotinin, 1 uM pepstatin A, and 100 uM leupeptin. The pellet was nutated for 30 min in this buffer. Subsequently, the pellet was homogenized with 15 strokes using a glass and teflon potter. The volume was doubled with a 2× sucrose/NaCl solution (500 mM sucrose, 300 mM NaCl in lysis buffer). After centrifugation at 10,000×g for 30 min, the supernatant was decanted and stored at −20° C. The pellet was resuspended in 2.5 volumes of lysis buffer containing 250 mM sucrose and 150 mM NaCl. Homogenization was repeated (15 strokes) and the suspension was centrifuged again and the decanted supernatant was stored at −20° C. The pellet was resuspended with 2 times the original pellet volume in lysis buffer containing 150 mM NaCl and 1% Triton X-100. The suspension was nutated for 20 min and then homogenized with 5 strokes. Subsequently, the suspension was centrifuged at 30,000×g for 1 h and supernatant was decanted and poured into a chromatographic column. Sephadex G-25 (fine) was added in small amounts, allowing approximately 15 min after each addition for complete swelling. Sephadex addition was continued until all liquid was absorbed. The protein was eluted with 1 void volume of lysis buffer and eluate monitored at 280 nm optical density. The chromatographic procedure was repeated and an equal volume of glycerol was added to the final eluate.
Primary assay: After titration, the HSD II prep, generated with the standard protocol, was diluted to the appropriate concentration (generally 1/15 dilution). 55 μl of assay buffer (50 mM Hepes, pH 8.0) was added to all wells of a 96 well plate. 5 μl of 5% DMSO were added to wells A1-C1, A2-C2, F1-H1, and F2-H2. A 10 μl aliquot of a 10 mM solution in DMSO of each compound was diluted in 190 μl of assay buffer. The plate with these compound dilutions was then mixed for 15 min on a shaker and a 5 μl aliquot from each well was added to the […]. This was followed by 10 μl of HSD II enzyme ( 1/15 dilution)/estradiol mix in assay buffer containing 1% Triton X-100. The estradiol […] from a 20 mM estradiol DMSO stock solution, which was diluted 1/20 (50 μl/ml) in 50 mM Hepes buffer containing 1% Triton X-100. All wells, except F1-H1 and F2-H2, also received 10 μl of 25 mg/ml NAD (SIGMA) in 100 mM Hepes, pH 9. The blank wells F1-H1 and F2-H2 received 10 μl of NAD buffer. 20 μl of PMS:MTS solution (100 μl PMS into 1800 μl MTS, Promega) was added to all wells. The plate was covered with aluminum foil and incubated at room temperature for 1.5 h. The plate was analyzed at 490 nm on a Hewlett Pachard 8453 spectrophotometer and results were calculated.

Setting [1] is: read-out: IC50 values ≧2 μM and <10 μM.

For `COc1ccccc1C1CC(=O)N(C)C1C(O)c1ccc(S(=O)(=O)c2ccc(Cl)cc2)s1` (centres unmarked) [Example 92], the melting point – broadly, the temperature, or range, at which the solid turns liquid – was determined as 220 °C. Besides, the IC50 (as a rule, the point on the concentration scale where inhibition reaches its midpoint) on 17-Beta HSD II Enzyme is less than 500 nM.

As for `CN(C)c1ccc([C@H]2CC(=O)N(C)[C@H]2[C@H](O)c2ccc(-c3ccccc3)s2)cc1` (relative stereo) [Example 19, (±)-(4R*,5R*)-5-[(1S*)-hydroxy(5-phenyl(2-thienyl))methyl]-1-methyl-4-[4-(dimethylamino)phenyl]pyrrolidin-2-one], the IC50 at 17-Beta HSD II Enzyme (setting [1]) lay within 2000 to 10000 nM.

For the compound `Cc1c(C(O)C2C(c3ccccc3)CC(=O)N2C)sc2ccc(F)cc12` (racemic) [Example 53], the melting point lay in the range of 175 to 177 °C. The IC50 on 17-Beta HSD II Enzyme was less than 500 nM.

As to `CN1C(=O)C[C@H](c2ccccc2)[C@@H]1[C@H](O)c1ccc(-c2cccnc2)s1` [Example 148], the IC50 at 17-Beta HSD II Enzyme is less than 500 nM.

As to `CN1C(=O)CC(c2ccccc2)C1C(O)c1ccc(-c2cccc(F)c2)o1` (centres unmarked) [Example 122], the melting point turned out to be 180 °C. In addition, the IC50 on 17-Beta HSD II Enzyme (setting [1]) lay within 2000 to 10000 nM.

Compound `CN1C(=O)C[C@H](c2cccc(F)c2)[C@@H]1[C@H](O)c1ccc(-c2ccc(F)cc2)s1` (racemic) [Example 85] displayed a melting point of 195 °C. At 17-Beta HSD II Enzyme, the IC50 is less than 500 nM.

For the compound `CN1C(=O)C[C@H](c2ccccc2)[C@@H]1[C@H](O)c1ccc(-c2ccccc2F)s1` (racemic) [Example 71], the melting point was found to be 216 °C. Moreover, at 17-Beta HSD II Enzyme, the 50% inhibitory concentration (IC50) was less than 500 nM.

As to `CN1C(=O)C[C@H](c2ccccc2)[C@@H]1[C@H](O)c1ccc(-c2cccc(NC(=O)Nc3ccc(F)cc3)c2)s1` (relative stereo) [Example 25, (±)-(4R*,5R*)-5-{(1S*)[5-(3-{[(4-fluorophenyl)amino]carbonylamino}phenyl)(2-thienyl)]hydroxymethyl}-1-methyl-4-phenylpyrrolidin-2-one], the IC50 on 17-Beta HSD II Enzyme (setting [1]) was in the range of 2000 to 10000 nM.

For `COc1cccc(-c2ccc(C(O)C3C(c4ccccc4)CC(=O)N3C)s2)c1` (racemic) [Example 31], the melting point is 128 °C. The IC50 at 17-Beta HSD II Enzyme was less than 500 nM.

`CN1C(=O)CC(c2ccccc2)C1C(O)Cc1nc(-c2ccccc2)cs1` (centres unmarked) [Example 138]: the melting point is 189 °C. Besides, on 17-Beta HSD II Enzyme (setting [1]), the IC50 is 2000 to 10000 nM.

For the compound `CN1C(=O)CC(c2ccccc2)C1C(O)c1ccc(-c2ccc(Cl)cc2)s1` (centres unmarked) [Example 51], the IC50 at 17-Beta HSD II Enzyme is less than 500 nM.

Compound `CN1C(=O)C[C@H](c2ccccc2)[C@@H]1[C@H](O)c1ccc(-c2cccs2)s1` (racemic) [Example 29] gave a melting point of 152 °C. The IC50 on 17-Beta HSD II Enzyme is less than 500 nM.

`CN(C)c1ccc(-c2ccc([C@@H](O)[C@H]3[C@@H](c4ccccc4)CC(=O)N3C)s2)cc1F` (racemic) [Example 28]: the melting point amounted to 173 °C. In addition, the IC50 at 17-Beta HSD II Enzyme (setting [1]) was 2000 to 10000 nM.

In the case of `CN(C)c1cccc(-c2ccc(C(O)C3C(c4ccccc4)CC(=O)N3C)s2)c1` (centres unmarked) [Example 74], the melting point was found to be 193 °C. At 17-Beta HSD II Enzyme, the IC50 was less than 500 nM.

In the case of `CN1C(=O)C[C@H](c2ccccc2)[C@@H]1[C@H](O)c1ccc(-c2cccc(NS(C)(=O)=O)c2)s1` (racemic) [Example 73], the melting point is 199 °C. Further, at 17-Beta HSD II Enzyme, the IC50 was less than 500 nM.

In turn, `CN1C(=O)C[C@H](c2ccccc2)[C@@H]1[C@H](O)C#Cc1ccccc1Cl` (racemic) [Example 126] registered a melting point of 139 to 140 °C. Further, the IC50 at 17-Beta HSD II Enzyme is less than 500 nM.

In the case of `CN1C(=O)C[C@H](c2ccccc2)[C@@H]1[C@H](OCCCc1ccccc1)c1cccs1` [Example 141], the melting point lay in the range of 76 to 78 °C. Besides, the IC50 at 17-Beta HSD II Enzyme (setting [1]) is 2000 to 10000 nM.

`CO[C@H](c1cccs1)[C@H]1[C@@H](c2ccccc2)CC(=O)N1C` (relative stereo) [Example 12, (±)-(4R*,5R*)-5-((1S*)-methoxy-2-thienylmethyl)-1-methyl-4-phenylpyrrolidin-2-one] gave a melting point of 101 to 102 °C. Further, on 17-Beta HSD II Enzyme (setting [1]), the IC50 fell in the range of 2000 to 10000 nM.

On to `CN1C(=O)CC(c2ccccc2)C1C(O)c1ccc(Sc2ccccc2)s1` (centres unmarked) [Example 66], for which the melting point was 172 °C. For the same compound, the IC50 at 17-Beta HSD II Enzyme is less than 500 nM.

Regarding `CN1C(=O)C[C@H](c2ccccc2F)[C@@H]1[C@H](O)c1cccs1` [Example 150], the melting point came to 212 °C. The IC50 on 17-Beta HSD II Enzyme is less than 500 nM.

Turning to `CN1C(=O)CC(c2ccccc2)C1C(O)c1ccc(-c2c(F)cccc2F)s1` (centres unmarked) [Example 30], at 17-Beta HSD II Enzyme, the IC50 was less than 500 nM.

In the case of `CN1C(=O)C[C@H](c2ccccc2)[C@@H]1COc1cccc(Cl)c1` (relative stereo) [Example 2, (±)-(4R*,5R*)-5-[(3-chlorophenoxy)methyl]-1-methyl-4-phenylpyrrolidin-2-one], the IC50 at 17-Beta HSD II Enzyme (setting [1]) fell in the range of 2000 to 10000 nM.

As to `CN1C(=O)C[C@H](c2ccccc2)[C@@H]1[C@H](O)c1ccc(-c2ccccn2)s1` [Example 147], the IC50 on 17-Beta HSD II Enzyme was less than 500 nM.

As to `CN1C(=O)CC(c2ccccc2)C1C(O)C#Cc1ccccc1F` (centres unmarked) [Example 127], the IC50 on 17-Beta HSD II Enzyme is less than 500 nM.

As to `CN1C(=O)C[C@H](c2ccc(-c3ccc(F)cc3)cc2)[C@@H]1[C@H](O)c1ccc(-c2ccccc2)s1` (relative stereo) [Example 22, (±)-(4R*,5R*)-5-[(1S*)hydroxy(5-phenyl(2-thienyl))-methyl]-4-[4-(4-fluorophenyl)phenyl]-1-methylpyrrolidin-2-one], on 17-Beta HSD II Enzyme (setting [1]), the IC50 lay within 2000 to 10000 nM.

Take `CN1C(=O)C[C@H](c2ccccc2)[C@@H]1[C@H](O)c1ccc(-c2cccnc2)s1` (racemic) [Example 79]: the IC50 on 17-Beta HSD II Enzyme is less than 500 nM.

Turning to `CN1C(=O)C[C@H](c2ccc(CO)cc2)[C@@H]1[C@H](O)c1ccc(-c2ccccc2)s1` (relative stereo) [Example 21, (±)-(4R*,5R*)-5-[(1S*)hydroxy(5-phenyl(2-thienyl))methyl]-4-[4-(hydroxymethyl)phenyl]-1-methylpyrrolidin-2-one], at 17-Beta HSD II Enzyme (setting [1]), the IC50 was in the range of 2000 to 10000 nM.

For the compound `CN1C(=O)C[C@H](c2ccc(O)cc2)[C@@H]1[C@H](O)c1ccc(-c2ccccc2)s1` (relative stereo) [Example 20, (±)-(4R*,5R*)-5-[(1S*)-hydroxy(5-phenyl(2-thienyl))methyl]-1-methyl-4-[4-hydroxyphenyl]pyrrolidin-2-one], at 17-Beta HSD II Enzyme, the 50% inhibitory concentration (IC50) is less than 500 nM.

For the compound `CN1C(=O)C[C@H](c2ccccc2)[C@@H]1[C@H](O)c1ccc(-c2ccc(F)cc2)s1` [Example 146], on 17-Beta HSD II Enzyme, the IC50 is less than 500 nM.

With `CN1C(=S)C[C@H](c2ccccc2)[C@@H]1[C@H](O)c1cccs1` (relative stereo) [Example 1, (±)-(4R*,5R*)-5-((1S*)-hydroxy-2-thienylmethyl)-1-methyl-4-phenylpyrrolidin-2-thione], the IC50 at 17-Beta HSD II Enzyme (setting [1]) lay in the range of 2000 to 10000 nM.

As to `CN1C(=O)C[C@H](c2ccccc2)[C@@H]1[C@H](O)C#Cc1ccccc1` (relative stereo) [Example 8, (±)-5-((1R*)-1-hydroxy-3-phenylprop-2-ynyl)(4R*,5R*)-1-methyl-4-phenylpyrrolidin-2-one], on 17-Beta HSD II Enzyme, the IC50 is less than 500 nM.

In the case of `CSC(c1cc2ccccc2[nH]1)[C@H]1[C@@H](c2ccccc2)CC(=O)N1C` (relative stereo) [Example 10], the IC50 on 17-Beta HSD II Enzyme is less than 500 nM.

For the compound `CN1C(=O)C[C@H](c2ccccc2)[C@@H]1[C@H](O)c1ccc(S(=O)(=O)c2ccccc2)s1` [Example 149], the IC50 on 17-Beta HSD II Enzyme was less than 500 nM.

For the compound `CN1C(=O)C[C@H](c2ccccc2)[C@@H]1[C@@H](O)c1ccc(-c2ccccc2)s1` [Example 11, (4R,5R)-5-[(1R)-hydroxy(5-phenyl(2-thienyl))methyl]-1-methyl-4-phenylpyrrolidin-2-one], the IC50 on 17-Beta HSD II Enzyme is less than 500 nM.
